Among the data in PubChem BioAssay (NCI) are GI50 and TGI values, retold here.

Molecules are shown by their SMILES.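 96-well plates; 48 h exposure; 5 concentrations. Endpoints by linear interpolation between flanking doses. Not reached: highest tested concentration assigned. Abbreviation: GI50, concentration required for 50% inhibition of growth. TGI denotes the concentration required for complete inhibition of growth.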

Some test systems named below: BT-549 breast; CCRF-CEM leukemia; COLO 205 colon; HCC-2998 colon; HCT-116 colon; K-562 leukemia; LOX IMVI melanoma; MCF7 breast; NCI/ADR-RES ovarian; U251 CNS.
What all share (test): growth of human tumour cells (NCI), 48 h

Take `N#Cc1cnc2cc(OC[C@H](O)CO)c(NC(=O)CC3CSSC3)cc2c1Nc1ccc(OCc2cccc(F)c2)c(Cl)c1`: the GI50 in the assay with BT-549 breast was 0.133 µM; in the assay with CCRF-CEM leukemia, 0.0923 µM; in the assay on COLO 205 colon, 0.883 µM; in the assay on HCC-2998 colon, 0.796 µM; in the assay on HCT-116 colon, 0.0977 µM; in the assay with K-562 leukemia, 0.122 µM. In addition, the GI50 with LOX IMVI melanoma was 2.26 µM; with MCF7 breast, 0.0865 µM; with NCI/ADR-RES ovarian it was 2.72 µM; in the assay with U251 CNS it was 0.465 µM. Besides, the TGI with BT-549 breast was 0.43 µM; in the assay with CCRF-CEM leukemia it was 0.251 µM; in the assay on COLO 205 colon it was 1.81 µM; in the assay on HCC-2998 colon it was 1.55 µM; with HCT-116 colon, 0.208 µM; in the assay on K-562 leukemia, 0.361 µM. The TGI was found to be 3.41 µM in the assay with LOX IMVI melanoma, 0.176 µM with MCF7 breast, 5.1 µM in the assay on NCI/ADR-RES ovarian and 1.33 µM in the assay on U251 CNS.

For `ClCCn1c(CCl)nc2ccc(Cl)cc21`, the GI50 in the assay on BT-549 breast was 0.277 µM; in the assay on CCRF-CEM leukemia, 0.28 µM; in the assay on COLO 205 colon it was 1.55 µM; in the assay on HCC-2998 colon it was 2.01 µM; with HCT-116 colon, 0.272 µM; in the assay on K-562 leukemia it was 0.34 µM. The GI50 with LOX IMVI melanoma is 0.156 µM; in the assay on MCF7 breast, 0.372 µM; with NCI/ADR-RES ovarian it was 1.21 µM; in the assay with U251 CNS it was 1.16 µM. The TGI in the assay on BT-549 breast came out at 0.753 µM; in the assay on CCRF-CEM leukemia, 1.65 µM; in the assay with COLO 205 colon, 3.07 µM; with HCC-2998 colon, 3.87 µM; in the assay with HCT-116 colon it was 0.731 µM; with K-562 leukemia it was 1.03 µM. For the same compound, the TGI in the assay with LOX IMVI melanoma was determined as 0.317 µM; with MCF7 breast, 2.01 µM; with NCI/ADR-RES ovarian it was 4.36 µM; with U251 CNS it was 2.7 µM.

For `O=C(c1ccc(F)cc1)c1cccc(C(=O)c2ccc(F)cc2)n1`, the TGI with BT-549 breast is 18.5 µM; with CCRF-CEM leukemia it was more than 100 µM; in the assay on COLO 205 colon it was more than 100 µM; in the assay on HCC-2998 colon, more than 100 µM; in the assay with HCT-116 colon, 81.8 µM; in the assay with K-562 leukemia, more than 100 µM. For the same compound, the TGI in the assay on LOX IMVI melanoma is more than 100 µM; with MCF7 breast, more than 100 µM; in the assay on NCI/ADR-RES ovarian it was more than 100 µM; in the assay with U251 CNS, 44.5 µM.

Consider `CNC(=O)n1ccc2cc(Oc3ccnc(NC(=O)c4ccc(C5CCN(CCO)CC5)cc4)c3)c(OCCOC)cc21`, for which the GI50 in the assay on BT-549 breast is 2.35 µM; in the assay on CCRF-CEM leukemia, 2.8 µM; with COLO 205 colon, 2.83 µM; in the assay with HCC-2998 colon it was 8.57 µM; with HCT-116 colon, 2.63 µM; in the assay with K-562 leukemia, 0.529 µM. Also, the GI50 was 1.77 µM with LOX IMVI melanoma, 4.33 µM in the assay with MCF7 breast, 12.9 µM in the assay on NCI/ADR-RES ovarian and 3.15 µM in the assay on U251 CNS. The TGI with BT-549 breast is 14.2 µM; in the assay on CCRF-CEM leukemia, more than 100 µM; with COLO 205 colon, 8.6 µM; in the assay on HCC-2998 colon, 21.3 µM; in the assay with HCT-116 colon, 11.9 µM; with K-562 leukemia it was 10.6 µM. The TGI stood at 3.7 µM in the assay on LOX IMVI melanoma, 19.5 µM in the assay with MCF7 breast, 42.4 µM in the assay with NCI/ADR-RES ovarian and 12.3 µM with U251 CNS.

For the compound `CC/C=C\C=C/C(=O)N/C=C/CC1Cc2cccc(O)c2C(=O)O1` (stereo not given), the GI50 was 25.8 µM in the assay on BT-549 breast; 15 µM in the assay on CCRF-CEM leukemia; 20.3 µM in the assay with COLO 205 colon; 19.2 µM in the assay with HCC-2998 colon; 19.1 µM with HCT-116 colon; 11.5 µM in the assay with K-562 leukemia. Further, the GI50 in the assay on LOX IMVI melanoma is 13.3 µM; with MCF7 breast, 3.87 µM; in the assay with NCI/ADR-RES ovarian it was 35.5 µM; in the assay with U251 CNS, 23.3 µM. The TGI is 87.3 µM in the assay with BT-549 breast; 39.9 µM in the assay on CCRF-CEM leukemia; 41.2 µM in the assay on COLO 205 colon; 43.5 µM in the assay on HCC-2998 colon; 42.2 µM with HCT-116 colon; more than 100 µM in the assay on K-562 leukemia. For the same compound, the TGI in the assay with LOX IMVI melanoma was 26.5 µM; in the assay on MCF7 breast, 49.4 µM; with NCI/ADR-RES ovarian, more than 100 µM; in the assay on U251 CNS it was more than 100 µM.

Consider `O=C1c2ccccc2-c2c1c1ccccc1c(=O)n2CCCNCCCNCCCn1c2c(c3ccccc3c1=O)C(=O)c1ccccc1-2`, for which the GI50 with BT-549 breast was 0.665 µM; in the assay with CCRF-CEM leukemia, less than 0.01 µM; with COLO 205 colon it was 0.572 µM; in the assay with HCC-2998 colon, less than 0.0162 µM; in the assay on HCT-116 colon, less than 0.01 µM; in the assay on K-562 leukemia, 0.0225 µM. Also, the GI50 is 0.0215 µM with LOX IMVI melanoma, 0.0382 µM in the assay with MCF7 breast, 0.319 µM in the assay with NCI/ADR-RES ovarian and less than 0.01 µM in the assay on U251 CNS. Also, the TGI turned out to be 2.08 µM in the assay with BT-549 breast; 0.175 µM in the assay on CCRF-CEM leukemia; 8.1 µM in the assay with COLO 205 colon; 0.167 µM with HCC-2998 colon; 0.476 µM with HCT-116 colon; 1.22 µM with K-562 leukemia. Further, the TGI is 0.175 µM with LOX IMVI melanoma, 0.18 µM with MCF7 breast, 1.98 µM in the assay on NCI/ADR-RES ovarian and 0.122 µM with U251 CNS.

For the compound `O=CNc1c(Cl)cc2c(c1Cl)Cc1cc([N+](=O)[O-])ccc1-2`, the GI50 with BT-549 breast was 16.3 µM; in the assay with CCRF-CEM leukemia, 0.445 µM; with COLO 205 colon it was 4.76 µM; in the assay with HCC-2998 colon, 5.84 µM; with HCT-116 colon, 1.02 µM; in the assay with K-562 leukemia it was 1.38 µM. For the same compound, the GI50 is 4.59 µM with LOX IMVI melanoma, 0.34 µM in the assay on MCF7 breast, 4.49 µM in the assay with NCI/ADR-RES ovarian and 5.87 µM in the assay with U251 CNS. The TGI in the assay with BT-549 breast is more than 86.9 µM; with CCRF-CEM leukemia, more than 100 µM; in the assay with COLO 205 colon, 23.7 µM; with HCC-2998 colon, 39.9 µM; in the assay with HCT-116 colon it was 19.7 µM; in the assay with K-562 leukemia it was more than 100 µM. For the same compound, the TGI in the assay on LOX IMVI melanoma was more than 54.7 µM; in the assay with MCF7 breast it was more than 100 µM; with NCI/ADR-RES ovarian, 38.3 µM; in the assay with U251 CNS, more than 76.3 µM.

Turning to `CCCCOc1ccc(NC(N)=Nc2ccc(Cl)cc2)cc1`, the TGI in the assay on BT-549 breast was 23.4 µM; in the assay on CCRF-CEM leukemia it was more than 35.7 µM; in the assay on COLO 205 colon, 0.26 µM; in the assay on HCC-2998 colon, 2.64 µM; in the assay on HCT-116 colon, 12.4 µM; in the assay on K-562 leukemia it was 11.6 µM. For the same compound, the TGI with LOX IMVI melanoma stood at 15.1 µM; with MCF7 breast, 4.2 µM; with NCI/ADR-RES ovarian, 18.9 µM; in the assay with U251 CNS, 21.5 µM.
